# Measurements as given in publication PMC11755336 (Journal of Pharmaceutical Analysis, 2024).
# Where two headings read alike, the source gives them in different places.
# How the values were obtained:
# AChE [1] = molecular target: AChE (Electrophorus electricus, UniProt O42275); experiment: biochemical; type: binding
# MAO-A = MAO-A (Homo sapiens, UniProt P21397); experiment: MAO-A inhibition rate, enhanced Weissbach's method; type: biochemical
# BV2 cells = experiment: Aβ phagocytosis assay in BV2 cells; type: cell-based, mice; conditions: versus control group
# [2] = rats, oral KXS 10 mL/kg (4 g/mL), 8 days
# AChE [3] = molecular target: AChE (Homo sapiens, UniProt P22303); experiment: biochemical; type: biochemical
# [4] = molecular target: recombinant MAO-A from human (Homo sapiens, UniProt P21397); experiment: SPR affinity detection with MAO-A; type: binding
# Sequence of recombinant MAO-A from human (P21397 whole entry): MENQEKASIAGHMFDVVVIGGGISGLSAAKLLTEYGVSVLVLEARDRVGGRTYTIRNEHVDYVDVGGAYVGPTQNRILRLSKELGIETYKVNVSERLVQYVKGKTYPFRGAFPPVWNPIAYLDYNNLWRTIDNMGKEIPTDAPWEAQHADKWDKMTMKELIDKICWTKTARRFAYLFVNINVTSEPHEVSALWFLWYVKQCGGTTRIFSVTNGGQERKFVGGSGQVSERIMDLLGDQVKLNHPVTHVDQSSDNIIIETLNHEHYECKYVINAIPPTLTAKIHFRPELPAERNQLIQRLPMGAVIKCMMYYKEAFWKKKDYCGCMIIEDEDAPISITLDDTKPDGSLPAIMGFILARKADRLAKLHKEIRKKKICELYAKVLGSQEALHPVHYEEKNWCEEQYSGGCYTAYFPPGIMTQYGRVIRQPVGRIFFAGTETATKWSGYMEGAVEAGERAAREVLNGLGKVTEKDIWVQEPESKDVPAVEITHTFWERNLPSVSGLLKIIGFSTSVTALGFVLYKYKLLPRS
# Sequence of MAO-A (P21397 whole entry): as above
# Sequence of AChE (Electrophorus electricus, UniProt O42275) (O42275 24-633): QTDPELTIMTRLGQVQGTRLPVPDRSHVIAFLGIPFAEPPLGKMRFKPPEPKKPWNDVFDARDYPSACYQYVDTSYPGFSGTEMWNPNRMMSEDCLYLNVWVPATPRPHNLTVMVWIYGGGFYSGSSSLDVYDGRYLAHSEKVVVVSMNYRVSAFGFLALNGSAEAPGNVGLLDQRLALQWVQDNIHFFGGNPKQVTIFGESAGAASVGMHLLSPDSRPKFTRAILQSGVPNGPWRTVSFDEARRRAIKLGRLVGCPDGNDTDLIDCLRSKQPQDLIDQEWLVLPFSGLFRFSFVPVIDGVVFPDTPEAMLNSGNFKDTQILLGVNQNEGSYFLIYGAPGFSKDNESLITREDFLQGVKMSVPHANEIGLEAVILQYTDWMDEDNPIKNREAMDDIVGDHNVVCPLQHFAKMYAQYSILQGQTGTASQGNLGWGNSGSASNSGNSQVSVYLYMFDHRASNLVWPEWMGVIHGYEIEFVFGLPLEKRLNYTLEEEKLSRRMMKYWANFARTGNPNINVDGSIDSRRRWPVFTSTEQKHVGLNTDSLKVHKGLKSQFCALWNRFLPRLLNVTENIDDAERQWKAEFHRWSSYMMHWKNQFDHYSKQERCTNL
smiles,measurement,setting,value
O=c1c2cc(O)ccc2oc2cc(O)c([C@@H]3O[C@H](CO)[C@@H](O)[C@H](O)[C@H]3O[C@@H]3OC[C@](O)(CO)[C@H]3O)c(O)c12 [Sibiricaxanthone B],Kd,AChE [1]; read-out: AChE Affinity KD,1.2 µM
"C#CCN(C)CCCOc1ccc(Cl)cc1Cl [Clorgyline, reference compound]",MAO-A inhibition rate (in words),MAO-A,highest inhibition rate
C/C=C/c1cc(OC)c(OC)cc1OC [α-asarone],phagocytic ability of BV2 cells towards FITC-Aβ1−42 (fluorescence intensity),BV2 cells,notable improvements in phagocytic activity
same,detection in brain tissue,[2],found in brain samples
CCCCCCCCCCCCCCCC(=O)OC [methyl palmitate],phagocytic ability of BV2 cells towards FITC-Aβ1−42 (fluorescence intensity),BV2 cells,effectively enhanced the phagocytic capability
same,AChE inhibition rate,AChE [3],exceeding 80%
CC12CCC(CC1=O)C2(C)C (stereo not shown) [Camphor],Kd,AChE [1],0.0251 µM
same,phagocytic ability of BV2 cells towards FITC-Aβ1−42 (fluorescence intensity),BV2 cells,effectively enhanced the phagocytic capability
same,AChE inhibition rate,AChE [3],exceeding 80%
same,IC50,AChE [3],6.23 ± 0.567 µM
C=CCc1ccc(OC)cc1 [Estragole],IC50,MAO-A,144 ± 7.43 µM
same,Kd,[4],2.35 µM
same,phagocytic ability of BV2 cells towards FITC-Aβ1−42 (fluorescence intensity),BV2 cells,notable improvements in phagocytic activity
C=CCc1cc(OC)c(OC)c(OC)c1 [Elemicin],IC50,MAO-A,62.2 ± 1.08 µM
same,MAO-A inhibition rate (in words),MAO-A; concentrations up to 50 μM,comparable inhibition rate
same,Kd,[4],4.69 µM
same,phagocytic ability of BV2 cells towards FITC-Aβ1−42 (fluorescence intensity),BV2 cells,significantly enhanced phagocytic ability
C=CCc1ccc(OC)c(OC)c1 [Methyl eugenol],IC50,MAO-A,96.1 ± 9.87 µM
same,Kd,[4],5.83 µM
same,phagocytic ability of BV2 cells towards FITC-Aβ1−42 (fluorescence intensity),BV2 cells,weaker phagocytic ability
C/C=C/c1ccc(OC)c(OC)c1 [Methyl isoeugenol],Kd,AChE [1],0.0185 µM
same,phagocytic ability of BV2 cells towards FITC-Aβ1−42 (fluorescence intensity),BV2 cells,weaker phagocytic ability
same,IC50,AChE [3],9.68 ± 0.353 µM
"CC(C)(C)c1ccc(O)c(C(C)(C)C)c1 [2,4-Di-tert-butylphenol]",Kd,AChE [1],0.133 µM
same,phagocytic ability of BV2 cells towards FITC-Aβ1−42 (fluorescence intensity),BV2 cells,notable improvements in phagocytic activity
same,IC50,AChE [3],4.51 ± 0.191 µM
same,AChE inhibitory rate compared with galantamine,AChE [3]; 25 μM,surpassed that of galantamine
CC1=CCC(O)(C(C)C)CC1 (stereo not shown) [terpinen-4-ol],phagocytic ability of BV2 cells towards FITC-Aβ1−42 (fluorescence intensity),BV2 cells,effectively enhanced the phagocytic capability
same,phagocytic ability of BV2 cells towards FITC-Aβ1−42 (fluorescence intensity),BV2 cells; listed as terpiene-4-ol,weaker phagocytic ability
COc1cc2c(=O)c3c(O)c([C@@H]4O[C@H](CO)[C@@H](O)[C@H](O)[C@H]4O)c(O)cc3oc2cc1O [7-O-methylmangiferin],Kd,AChE [1]; read-out: AChE Affinity KD,16.9 µM
same,inhibitory effect on AChE (in words),AChE [3],relatively low
same,IC50,AChE [3]; read-out: AChE IC50,2.98 ± 0.245 µM
C/C=C\c1cc(OC)c(OC)cc1OC [β-asarone],phagocytic ability of BV2 cells towards FITC-Aβ1−42 (fluorescence intensity),BV2 cells,notable improvements in phagocytic activity
same,detection in brain tissue,[2],found in brain samples
